{"source": "patent US11174462B2", "about": "“Microfluidic model of the blood brain barrier” (EMULATE, Inc., priority 2015, dated 2021)", "key": {"[1]": {"system": "neurons seeded in chip", "type": "cell-based, human"}, "[2]": {"system": "cell monolayers with tight junctions", "details": "passive paracellular diffusion only; cited from earlier work"}, "[3]": {"system": "BMECs seeded on a microfluidic device", "assay": "Paracellular permeability assay with Dextran-FITC on chip", "type": "cell-based, human", "details": "TNFa exposure, FIG. 14B", "experimental": "Albumin or Dextran conjugated to a fluorescent probe (e.g., FITC or TRITC) are frequently used to monitor changes in leakage, and thus barrier function. In this case, Dextran-FITC, a green fluorescent molecule of 4 KDa, or sodium fluorescein (a 0.3 KDa molecule), was added to the bottom (“blood side”) channel. Paracellular permeability was calculated by measuring the permeability of the fluorescent molecule on the Top (“brain side”) channel. […] FIG. 14B involves TNF-alpha exposure, but the readout is membrane permeability as measured by Dextran-FITC."}, "[4]": {"system": "iBMEC barrier", "assay": "TEER measurement of iBMEC barrier function on TEER chips under flow", "type": "cell-based, human", "details": "exposure of chips under flow to TNFa, FIG. 14A", "experimental": "Cells were plated on tall channel PDMS chips equipped with incorporated gold electrodes on each channel (see FIG. 13A). Post seeding of BMECs, transendothelial electrical resistance was measured by connecting the electrodes to an EVOM2 voltohmmeter (see FIG. 13B). […] The “damaged” chip was a failure due to the TEER-Chips being a prototype.\nHigher TEER values generally indicate a tighter barrier, which is typically desirable for a blood-brain barrier."}}, "note": "Entries after “also recorded” stand apart in the source; their conditions may differ."}
{"compound": "NC1=N[C@H](O)[C@H]2[C@H]3O[C@]4(O)O[C@@H]([C@@H](O)[C@@]2(N1)[C@@H]4O)[C@]3(O)CO", "note": "[TTX, tetrodotoxin]", "values": [{"measurement": "effect on neuronal calcium flux activity", "setting": "[1]", "result": "ablates this activity"}]}
{"compound": "Lucifer Yellow", "values": [{"measurement": "permeability across cell monolayers (in words)", "setting": "[2]", "result": "low permeability"}]}
{"compound": "TNFa", "values": [{"measurement": "effect on permeability to dextran-FITC through the semi-porous membrane", "setting": "[3]", "result": "increase in permeability"}, {"measurement": "effect on iBMEC barrier function (TEER)", "setting": "[4]", "result": "weakening of barrier function; also recorded: decrease in barrier function and TEER"}]}
